Experimental findings from publication PMC11238198, “Rejuvenation of Meropenem by Conjugation with Tilapia Piscidin-4 Peptide Targeting NDM-1 Escherichia coli” (ACS Omega, 2024) are described below.

The subject of one data set is S. aureus 13–1. Kind of data set: microbe, parasite or virus in culture. The format is cell-based. The conditions noted are these: Mueller Hinton broth, 50 μL of 1 × 10^6 CFU/mL + 50 μL sample, 37 °C, 16–20 h, three independent replicates, each in triplicate. The method, then:
(§1) E. coli 8–8, A. baumannii 2982, and S. aureus 13–1 were procured from the Bioresource Collection and Research Center (BCRC), Taiwan. NDM-1-positive E. coli BAA 2452 was procured from ATCC. All strains were cultured in Mueller Hinton broth (MHB). The concentration of bacteria was identified by the absorbance at OD600. The colony forming units (CFU) corresponding to different OD600 values were identified by plating on the Mueller Hinton agar (MHA) plate.
(§2) Antibacterial analysis was performed according to a standard protocol.[32] Overnight cultures of test bacteria were prepared and freshly subcultured. Briefly, 50 μL of 1 × 10^6 CFU/mL bacterial cells was treated with 50 μL of peptide or conjugate at different concentrations in a 96-well plate. The plates were incubated at 37 °C for 16–20 h. The lowest concentration of peptide/conjugate showing no growth was considered the minimum inhibitory concentration (MIC). To identify the MIC (MBC), 5 μL of incubated suspensions from growth-free wells was plated onto MHA and incubated overnight at 37 °C. The lowest concentration of peptide/conjugate showing no growth on the MHA plate was considered to be the MBC. The experiments were performed in three independent replicates, each in triplicate.

Data set [1] deals with NDM E. coli BAA 2452. Kind of data set: microbe, parasite or virus in culture. It is filed as cell-based. The conditions noted are these: Escherichia coli, BAA2452; 5 μL from growth-free wells plated onto MHA, overnight at 37 °C; three independent replicates, each in triplicate. The procedure:
as §1, §2

A further data set deals with A. baumannii 2982. The experiment in a line: microbe, parasite or virus in culture. Conditions: Mueller Hinton broth, 50 μL of 1 × 10^6 CFU/mL + 50 μL sample, 37 °C, 16–20 h, three independent replicates, each in triplicate. It is filed as cell-based, Acinetobacter baumannii. The method, then:
as §1, §2

Data set [2] concerns NDM E. coli BAA 2452. The experiment in a line: microbe, parasite or virus in culture. The conditions noted are these: for MIC: NDM-1-positive MDR strain, Mueller Hinton broth, 37 °C, 16–20 h, three independent replicates, each in triplicate. It is filed as cell-based, Escherichia coli. The method, then:
as §1, §2

A further data set has as its system E. coli 8–8. It is filed as cell-based, Escherichia coli. Conditions: Mueller Hinton broth, 50 μL of 1 × 10^6 CFU/mL + 50 μL sample, 37 °C, 16–20 h; three independent replicates, each in triplicate. The method, then: as §1, §2
In the next data set the test system is RBCs. It is filed as cell-based, Human. The procedure: Human RBCs were used to examine the hemolytic profiles of the peptides and conjugates. The RBCs were washed three times with PBS and centrifuged at 1000g. Then, 50 μL of a 2% RBC suspension was added to 50 μL of peptide/conjugate solution at different concentrations. The mixture was incubated at 37 °C for 1 h. The incubated mixture was centrifuged, and hemolysis was assessed by measuring the absorbance of the supernatant at 540 nm.

For another data set, the system named is CCD966-SK cells. It is filed as cell-based, human. Conditions: 16 µM. The method, then:
RAW 264.7 murine macrophage cells, CCD966-SK human fibroblast cells, and HaCaT human keratinocytes were procured from BCRC, Taiwan. RAW264.7 and HaCaT cells were cultivated in DMEM supplemented with 10% FBS, streptomycin (100 μg/mL), and penicillin (100 U/mL) at 37 °C and 5% CO2. CCD966-SK were cultivated in MEM with 0.1 mM nonessential amino acids with 10% FBS, streptomycin (100 μg/mL), and penicillin (100 U/mL) at 37 °C and 5% CO2. In vitro cytotoxicity of the TP4-Meropenem conjugates was evaluated with an alamarBlue assay. Briefly, 5 × 10^4 RAW264.7 cells/well or 5 × 10^3 CCD966-SK or 1 × 10^4 HaCaT cells/well were seeded in 96-well plates for 24 h and then treated with different concentrations of peptide/conjugate. Controls included 0.1% Triton-X-treated cells and cells in a culture medium. After 24 h of treatment, the cells were washed and incubated with 90 μL of DMEM and 10 μL of alamarBlue reagent for 2 h. The absorbances at 570 and 600 nm were measured using a Spectra Max i3 (Molecular Devices, CA). Cell viability was calculated using the formula as described in the protocol. The LDH assay was carried out using the cytotoxicity detection kit PLUS according to a previously described protocol.[33]

No end group written: not given here.

In the case of `C[C@@H](O)[C@H]1C(=O)N2C(C(=O)O)=C(S[C@@H]3CN[C@H](C(=O)N(C)C)C3)[C@H](C)[C@H]12` [Meropenem], the MIC with S. aureus 13–1 (Staphylococcus aureus, read-out: minimum inhibitory concentration (MIC) S. aureus 13–1) is 0.25 µM; in the data set on A. baumannii 2982 (Acinetobacter baumannii, 2982, read-out: minimum inhibitory concentration (MIC) A. baumannii 2982), > 32 µM; with NDM E. coli BAA 2452 [2] (Escherichia coli, BAA2452) it was > 64 µM; with NDM E. coli BAA 2452 [2] it was >64 µM. In addition, the MBC against NDM E. coli BAA 2452 [1] is > 64 µM.

On to D-Tilapia piscidin 4 [D-TP4], for which the “minimum inhibitory concentration (MIC) S. aureus 13–1” value in the data set with S. aureus 13–1 was 2 to 4 µM. Moreover, in the data set on E. coli 8–8, the “minimum inhibitory concentration (MIC) E. coli 8–8” value lay within 2 to 4 µM. In the data set on A. baumannii 2982, the “minimum inhibitory concentration (MIC) A. baumannii 2982” value was in the range of 2 to 4 µM.

For the compound “FIHHIIGGLFSAGKAIHRLIRRRRR [L-TP4, Tilapia piscidin-4] [listing 1 of 2 here]”, in the data set with NDM E. coli BAA 2452 [2] (BAA 2452), the “MIC NDM E. coli BAA 2452” value was in the range of 4 to 8 µM.

“FIHHIIGGLFSAGKAIHRLIRRRRR [L-TP4, Tilapia piscidin-4] [listing 2 of 2 here]”: in the data set with RBCs (4 µM), the “hemolysis (% of the total cells) at 4 μM” value turned out to be 44.4 ± 4.3%. The “hemolysis (% of the total cells) at 8 μM” value in the data set with RBCs (8 µM) stood at 84.1 ± 6.2%.

As for “FIHHIIGGLFSAGKAIHRLIRRRRR [TP4, Tilapia piscidin-4]”, in the data set on CCD966-SK cells, the “cell viability, CCD966-SK” value is 23.9 ± 1.2%.
